Measured values as given in patent US12246044B2, “Bacterial and cell compositions for the treatment of colorectal cancer and methods for assessing a prognosis for patients having the same” (priority 2017, dated 2025).

Experiments:
[1] = tested on: small intestine enteroids; assay: OXA treatment of stem cell derived small intestine enteroids in vitro; assay type: cell-based, C57BL/6J mice; settings: culminating in calreticulin cell surface exposure, data not shown
Protocol: Crypts were isolated and enriched from the ileum of 8-12 week old C57BL/6J mice as previously described (24) with the following modifications. Briefly, washed pieces of ileum were incubated in crypt chelating buffer (2 mM EDTA in PBS) for 30 minutes on ice. Following the removal of crypt chelating buffer, fragments were vigorously rinsed 3 times with PBS containing 10% FCS and filtered through a 70-μm cell strainer (BD Bioscience). Crypts were pelleted, washed with Advanced DMEM/F12 (ADF) (Invitrogen), resuspended in 1 mL of Matrigel growth factor reduced basement membrane matrix (Corning) and 50 uL drops were pipetted into a 24 well plate. Crypts were overlayed with ADF containing the following: 100 U/mL penicillin G sodium, 100 μg/mL streptomycin sulphate, 2 mM L-glutamine, 10 mM HEPES, 1× N2 supplement, 1× B27 supplement, 50 ng/mL mEGF, 100 ng/mL mNoggin (Peprotech, Hamburg, Germany), N-acetylcysteine (Sigma) (reagents from Invitrogen unless otherwise indicated) and 10% conditioned medium of R-Spondin-1 transfected HEK 293T cells.
IEC suspensions were obtained from enteroids by means of 3 wash dissociation method, as described above. […]

[2] = tested on: ileal and colonic IEC; assay: Immunohistochemistry of cleaved caspase-3 in colon and ileal mucosae after OXA i.p.; assay type: in vivo, mice; settings: 6 h after OXA i.p.; ileal versus colonic IEC
Protocol: Donor mice were treated with oxaliplatin (10 mg/kg) i.p. for 6 h to induce gut cell death. Control animals were treated with vehicle (PBS) alone. The composition of the commensal gut microbiota in the treated and non-treated groups was maintained synchronized by cohousing. At the end of the treatment, mice were euthanized and the ileum was collected to isolate IEC. One million IECs were then injected s.c. into the left flank of the recipient mice. The procedure was repeated once, 7 days later. Tumor challenge was performed on the right flank 7 days after the last immunization, with doses which obtain 100% of tumor incidence in naïve mice, MC38 (1×10^6 cells), MCA205 (0.8×10^6 cells), CT26 (1×10^6 cells) and 4T1 (0.3×10^6 cells).
FFPE gut sections were deparaffinised and rehydrated through a series of graded alcohols and distilled water. Antigen retrieval was performed by pre-treating sections with 0.01 M sodium citrate buffer (pH 6.0, Diapath) for 30 min in a 98° C. water bath. Endogenous peroxidase activity was inhibited by treating sections with 3% […] (#S202386, DAKO) for 10 min. Sections were blocked with IHC/ISH Super Blocking (#PV6122, LeicaBiosystem) for 10 min. […] Peroxidases were detected with Di Amino Benzidine-peroxidase substrate kit (DAKO), and counterstained with Mayer's haematoxylin. […]

[3] = tested on: ileal mucosae; assay: qRT-PCR of immune gene transcripts in ileal mucosae of avatar mice; assay type: in vivo; settings: avatar responders compared to avatar non-responders
Protocol: Total RNA from gut biopsies was extracted with RNeasy Mini Kit (Qiagen) and then reverse transcribed into cDNA with the SuperScript III Reverse Transcriptase and the RNaseOUT™ Recombinant Ribonuclease Inhibitor (Life Technologies, Saint Aubin, France), in the presence of random primers (Promega, Charbonnieres, France) and the Deoxynucleoside Triphosphate Set, PCR grade (Roche Diagnostics, Meylan, France). cDNA was analyzed by real-time quantitative PCR (RT-qPCR) with the TaqMan method with TaqMan® Gene Expression Assays using the Universal Master Mix II (Invitrogen) according to the manufacturer's instructions using the 7500 Fast Real Time PCR system (Applied Biosystems). Expression was normalized to the expression of the housekeeping gene of Beta 2 Microglobulin by means of the 2^−ΔCt method.

[4] = tested on: MC38 tumors; assay: FMT avatar mice (GF mice colonized with PCAC patient colonic content), MC38, OXA; assay type: in vivo, C57BL/6J mice; settings: 12 PCAC patient feces tested
Protocol: (§1) Syngeneic C57BL/6J mice were implanted with 1×10^6 MC38 WT cells subcutaneously and treated intraperitoneally (i.p.) when tumors were 20 to 30 mm^2 in size with 10 mg/kg oxaliplatin or vehicule (PBS). The composition of the commensal gut microbiota in the treated and non-treated groups was maintained synchronized by cohousing. Tumor size was routinely monitored every 3 days by means of a caliper.
Frozen fecal samples were thawed and thoroughly vortexed. Large particulate material was allowed to settle by gravity. 200 μl of supernatant was administered in a single dose by oral gavage. Additionally, an extra 100 μl was topically applied onto the fur of each animal. The resulting gnotobiotic mice were maintained in positive pressurized isolators with irradiated food and autoclaved water. […]
Data analyses and representations were performed either with the statistical environment R, Microsoft Excel (Microsoft Co., Redmont, WA, USA) or Prism 5 (GraphPad, San Diego, CA, USA). Tumor growth was analysed with dedicated software (https://kroemerlab.shinyapps.io/TumGrowth). Briefly, data was subjected to a linear mixed effect modeling applied to log pre-processed tumor surfaces. p-values were calculated by testing jointly whether both tumor growth slopes and intercepts (on a log scale) were different between treatment groups of interests. […]

[5] = tested on: MC38 cancers; assay: MC38 tumor model in SPF mice, OXA + anti-PD-1 Abs plus oral gavage of live bacteria; assay type: in vivo, C57BL/6J mice; settings: SPF mice (eubiosis), oral gavage of 10^9 cfu live bacteria before and after OXA
Protocol: as §1
PD-1 blockade was performed by i.p. treatment with anti-PD-1 mAbs (RMP1-14; 200 μg/mouse) or respective isotype controls (2A3) (all antibodies from Bioxcell).
Erysipelothrix tonsillarum and Solobacterium moorei were provided by Prof. Ivo Gomperts Boneca, Institut Pasteur, France. Bacteroides fragilis, Alistipes onderdonkii, Erysipelatoclostridium ramosum, Dialister invisus, Paraprevotella clara isolates were isolated in our laboratory from ileal mucus from patients used in vaccination experiments. Species were grown on COS plates in aerobic or an anaerobic atmosphere created using anaerobic generators (Biomerieux) at 37° C. for 24-72 hrs. Colonization of ATB pre-treated or GF C57BL/6J mice was performed by oral gavage with 100 μl of suspension containing 1×10^9 bacteria in PBS. For bacterial gavage, suspensions of 10^9 CFU/ml were obtained using a fluorescence spectrophotometer (Eppendorf) at an optical density of 1 measured at a wavelength of 600 nm. […]

[6] = tested on: naïve CD4+ T cells; assay: Differentiation of naive CD4+ T cells into Th1 cells by DCs charged with HIEC-6 (IFNg ELISA); assay type: cell-based, human; settings: DCs charged with allogeneic HIEC-6 pre-exposed to bacteria and/or OXA; 6 healthy volunteers
Protocol: CD14+ cells were isolated from PBMC obtained from healthy donors (Miltenyi Kit). Monocytes were differentiated into DCs by adding GM-CSF and IL-4 in the culture medium for 6 days. On day 6, immature DCs were harvested and charged with apoptotic intestinal epithelial cells.
For apoptotic IEC cells preparation, HIEC-6 cells (ATCC) were treated with bacteria 1 h, OXA 3 h, and ATB 1 h, and then left ON. The next morning, Apoptotic cells were harvested, washed 3× in PBS and added to the DC culture.
Naïve CD4 T cells were isolated from the matched donor for each experiment (Miltenyi kit) and added to the DC-IEC culture at a 10:1 ratio. The final co-culture was incubated for 6 days. On day 6, anti-CD3 and anti-CD28 mAb were added to the culture. After 24 h incubation supernatants were assayed for IFNg by ELISA (Biolegend).

Row | Molecule | apoptosis of enteroids [1] | apoptosis-associated cleavage of caspase-3 in vivo [2] | ileal TH1/TFH immune tone (Tbx21, Bcl6, Il27, Gata3, Ahr expression) in response to OXA [3] | patient feces inducing complete resistance to OXA (avatar non-responders) [4] | patient feces resulting in antitumor efficacy of OXA comparable to SPF mice (avatar responders) [4] | OXA+anti-PD-1 Ab-mediated anticancer effects against established MC38 cancers [5] | HIEC-6 rendered immunogenic (differentiation of T cells into Th1 cells, IFN-gamma) [6]
1 | O=C1[O][Pt]2([NH][C@@H]3CCCC[C@H]3[NH]2)[O]C1=O [OXA, Oxaliplatin] | triggered a dose-dependent apoptosis | far more prominent in ileal than colonic IEC | decrease of the ileal TH1/TFH immune tone | 4 | 8/12 |  | 
2 | Bacteroides fragilis |  |  |  |  |  | improved OXA+anti-PD-1 Ab-mediated anticancer effects | rendered immunogenic
